Data published in patent publication US8802405B2, “Ethanologenic Clostridium species, Clostridium coskatii” (Coskata, Inc., priority 2010, dated 2014).

Assays:
[1] = at 37° C.; cited from earlier work
C. ljungdahlii PETC [2] = test: Antibiotic susceptibility, growth at 100 μg/mL antibiotic; format: cell-based, Clostridium ljungdahlii PETC; settings: for Antibiotic susceptibility pattern (+ indicates growth): C. ljungdahlii PETC, antibiotic 100 μg/ml, 37% CO, 35% H2, 22% CO2, balance N2, OD600; for Resistance to antibiotic (in words): Clostridium ljungdahlii PETC, 100 μg/mL
Experimental: (§1) The antibiotic susceptibility of Clostridium coskatii (PS02) was evaluated in Acetogen C3 media against 17 antibiotics at a concentration of 100 μg/mL (Table G). Clostridium coskatii (PS02) was resistant to erythromycin, nalidixic acid, spectinomycin, colistin, penicillin, streptomycin, and chloramphenicol. Three antibiotics differentiated C. coskatii from three ethanologenic Clostridia: C. ljungdahlii PETC, C. ragsgalei, and C. autoethanogenum. These differentiating antibiotics included, erythromycin, carbenicillin, and chloramphenicol (Table J).
(§2) Antibiotic susceptibility was based upon growth in media containing 100 μg/mL of each antibiotic. The atmosphere was 37% CO, 35% H2, 22% CO2 with a balance gas of N2. A positive growth response was recorded for an OD600 exceeding 0.2 AU.

C. autoethangenum [3] = test: as above; format: cell-based, Clostridium autoethanogenum; settings: antibiotic 100 μg/ml, 37% CO, 35% H2, 22% CO2, balance N2, OD600
Experimental: as §1, §2

C. coskatii PS02 [4] = test: as above; format: cell-based, Clostridium coskatii (PS02); settings: Acetogen C3 media; for Antibiotic susceptibility pattern (+ indicates growth): C. coskatii PS02, antibiotic 100 μg/ml, 37% CO, 35% H2, 22% CO2, balance N2, OD600; for Resistance to antibiotic (in words): Clostridium coskatii (PS02), 100 μg/mL
Experimental: as §1, §2

C. ragsdalei [5] = test: as above; format: cell-based, Clostridium ragsdalei; settings: antibiotic 100 μg/ml, 37% CO, 35% H2, 22% CO2, balance N2, OD600
Experimental: as §1, §2

[6] = tested on: Clostridium coskatii (PS02)
Excerpt: In general, fermentation will be allowed to proceed until a desired level of product such as ethanol is produced in the culture media. Typically, this level of ethanol is in the range of at least 15 grams/liter of culture medium to 50 grams/liter, with a level of at least 30 grams/liter being preferable. […] In addition, continuous culture techniques exist which allow the continual replenishment of fresh culture medium with concurrent removal of used medium, including any liquid products therein (i.e. the chemostat mode).

C. ljungdahlii PETC [7] = test: Growth on various substrates (carbon substrate utilization); format: cell-based, Clostridium ljungdahlii PETC; settings: for Growth on substrate: 1 g/L carbon source, N2:CO2 (80%:20%), OD600
Experimental: (§3) Growth was measured spectrophotometrically at 600 nm (Spectronic 20D; Milton Roy). Carbon substrate utilization was based upon growth after consecutive transfers in media containing 1 g/L of each carbon source. For carbon substrates, screening was performed under an atmosphere of N2: CO2 (80%:20%). A positive growth response was recorded for an OD600 exceeding 0.2 AU. For citrate, additional ^13C-labeled isotope experiments were conducted to determine the nature of products by analysis of final 0.2 μm-filtered product samples by carbon NMR using a Bruker UltraShield Avance 400 MHz nuclear magnetic resonance spectrometer.

C. autoethangenum [8] = test: as above; format: cell-based, Clostridium autoethanogenum; settings: for Growth on substrate: C. autoethangenum, 1 g/L carbon source, N2:CO2 (80%:20%), OD600
Experimental: as §3

C. ragsdalei [9] = test: as above; format: cell-based, Clostridium ragsdalei; settings: for Growth on substrate: 1 g/L carbon source, N2:CO2 (80%:20%), OD600
Experimental: as §3

C. coskatii PS02 [10] = test: as above; format: cell-based, Clostridium coskatii (PS02); settings: for Growth on substrate: C. coskatii PS02, 1 g/L carbon source, N2:CO2 (80%:20%), OD600; for Chemoorganotrophic growth on substrate (in words): Clostridium coskatii (PS02)
Experimental: as §3

[11] = tested on: Clostridium coskatii (PS02); remark: listed apart in the source
C. coskatii PS02 [12] = test: Growth on various substrates (carbon substrate utilization); format: cell-based; settings: Clostridium coskatii (PS02); absence of yeast extract

| Compound | Antibiotic susceptibility pattern (+ indicates growth) (C. ljungdahlii PETC [2]) | Antibiotic susceptibility pattern (+ indicates growth) (C. coskatii PS02 [4]) | Resistance to antibiotic (in words) (C. coskatii PS02 [4]) | Growth on substrate (C. ljungdahlii PETC [7]) | Growth on substrate (C. autoethangenum [8]) | Growth on substrate (C. ragsdalei [9]) | Growth on substrate (C. coskatii PS02 [10]) | also measured |
| --- | --- | --- | --- | --- | --- | --- | --- | --- |
| O=S(=O)(O)CCN1CCN(CCS(=O)(=O)O)CC1 [PIPES, piperazine-N,N′-bis(2-ethanesulfonic acid] | – | – | – | – | – | – | – | pKa [1]: 6.66 |
| Tris(hydroxymethyl)aminomethane | – | – | – | – | – | – | – | pKa [1]: 7.72 |
| Penicillin | + (+ indicates growth) | + (+ indicates growth) | resistant | – | – | – | – | Antibiotic susceptibility pattern (+ indicates growth) (C. autoethangenum [3]): + (+ indicates growth); Antibiotic susceptibility pattern (+ indicates growth) (C. ragsdalei [5]): + (+ indicates growth) |
| CN[C@@H]1[C@H](O)[C@H](NC)[C@H]2O[C@@]3(O)C(=O)C[C@@H](C)O[C@H]3O[C@@H]2[C@H]1O [Spectinomycin] | + (+ indicates growth) | + (+ indicates growth) | resistant | – | – | – | – | Antibiotic susceptibility pattern (+ indicates growth) (C. autoethangenum [3]): + (+ indicates growth); Antibiotic susceptibility pattern (+ indicates growth) (C. ragsdalei [5]): + (+ indicates growth) |
| O=C(N[C@H](CO)[C@H](O)c1ccc([N+](=O)[O-])cc1)C(Cl)Cl [Chloramphenicol] | – | + (+ indicates growth) | resistant | – | – | – | – | – |
| CC1(C)S[C@@H]2[C@H](NC(=O)C(C(=O)O)c3ccccc3)C(=O)N2[C@H]1C(=O)O (stereo partly drawn) [Carbenicillin] | + (+ indicates growth) | + (+ indicates growth) | Resistance | – | – | – | – | Resistance to antibiotic (in words) (C. ljungdahlii PETC [2]): Resistance |
| Colistin | + (+ indicates growth) | + (+ indicates growth) | resistant | – | – | – | – | Antibiotic susceptibility pattern (+ indicates growth) (C. autoethangenum [3]): + (+ indicates growth); Antibiotic susceptibility pattern (+ indicates growth) (C. ragsdalei [5]): + (+ indicates growth) |
| CC[C@H]1OC(=O)[C@H](C)[C@@H](O[C@H]2C[C@@](C)(OC)[C@@H](O)[C@H](C)O2)[C@H](C)[C@@H](O[C@@H]2O[C@H](C)C[C@H](N(C)C)[C@H]2O)[C@](C)(O)C[C@@H](C)C(=O)[C@H](C)[C@@H](O)[C@]1(C)O [Erythromycin] | + (+ indicates growth) | + (+ indicates growth) | resistant | – | – | – | – | Resistance to antibiotic (in words) (C. ljungdahlii PETC [2]): Resistance |
| CCO [Ethanol] | – | – | – | + (A positive growth response was recorded for an OD600 exceeding 0.2 AU) | + (A positive growth response was recorded for an OD600 exceeding 0.2 AU) | + (A positive growth response was recorded for an OD600 exceeding 0.2 AU) | + (A positive growth response was recorded for an OD600 exceeding 0.2 AU) | Ethanol concentration in which the organism remains viable and will grow [6]: at least 60 grams/liter |
| [H]/N=C(/N)N[C@H]1[C@H](O)[C@@H](O)[C@H](O[C@@H]2O[C@@H](C)[C@](O)(C=O)[C@H]2O[C@@H]2O[C@@H](CO)[C@H](O)[C@@H](O)[C@@H]2NC)[C@@H](N/C(N)=N\[H])[C@@H]1O [Streptomycin] | + (+ indicates growth) | + (+ indicates growth) | resistant | – | – | – | – | Antibiotic susceptibility pattern (+ indicates growth) (C. autoethangenum [3]): + (+ indicates growth); Antibiotic susceptibility pattern (+ indicates growth) (C. ragsdalei [5]): + (+ indicates growth) |
| O=C(CO)[C@@H](O)[C@H](O)[C@H](O)CO [Fructose] | – | – | – | + (A positive growth response was recorded for an OD600 exceeding 0.2 AU) | + (A positive growth response was recorded for an OD600 exceeding 0.2 AU) | + (A positive growth response was recorded for an OD600 exceeding 0.2 AU) | + (A positive growth response was recorded for an OD600 exceeding 0.2 AU) | Chemoorganotrophic growth on substrate (in words) (C. coskatii PS02 [10]): growth was observed |
| CC(=O)O [acetic acid] | – | – | – | – | – | – | – | Concentration of undissociated acetic acid at which cell growth was significantly inhibited [11]: exceeded 50 mM |
| [C-]#[O+] [CO] | – | – | – | + (A positive growth response was recorded for an OD600 exceeding 0.2 AU) | + (A positive growth response was recorded for an OD600 exceeding 0.2 AU) | + (A positive growth response was recorded for an OD600 exceeding 0.2 AU) | + (A positive growth response was recorded for an OD600 exceeding 0.2 AU) | Chemolithoautotrophic growth (in words) (C. coskatii PS02 [12]): occurred |
| O=C([O-])CCC(=O)[O-].[Na+].[Na+] [Na-Succinate] | – | – | – | + (A positive growth response was recorded for an OD600 exceeding 0.2 AU) | + (A positive growth response was recorded for an OD600 exceeding 0.2 AU) | + (A positive growth response was recorded for an OD600 exceeding 0.2 AU) | + (A positive growth response was recorded for an OD600 exceeding 0.2 AU) | Chemoorganotrophic growth on substrate (in words) (C. coskatii PS02 [10]): growth was observed |
| O=S(=O)(O)CCN1CCOCC1 [MES, 2-(N-morpholino)ethanesulfonic acid] | – | – | – | – | – | – | – | pKa [1]: 5.97 |
| C=C(OP(=O)(O)O)C(=O)O [Phosphoenol-pyruvate] | – | – | – | + (A positive growth response was recorded for an OD600 exceeding 0.2 AU) | + (A positive growth response was recorded for an OD600 exceeding 0.2 AU) | + (A positive growth response was recorded for an OD600 exceeding 0.2 AU) | + (A positive growth response was recorded for an OD600 exceeding 0.2 AU) | Chemoorganotrophic growth on substrate (in words) (C. coskatii PS02 [10]): growth was observed |
| CCn1cc(C(=O)O)c(=O)c2ccc(C)nc21 [Nalidixic acid] | + (+ indicates growth) | + (+ indicates growth) | resistant | – | – | – | – | Antibiotic susceptibility pattern (+ indicates growth) (C. autoethangenum [3]): + (+ indicates growth); Antibiotic susceptibility pattern (+ indicates growth) (C. ragsdalei [5]): + (+ indicates growth) |
| O=C(O)/C=C\C(=O)O [Maleic acid] | – | – | – | + (A positive growth response was recorded for an OD600 exceeding 0.2 AU) | + (A positive growth response was recorded for an OD600 exceeding 0.2 AU) | – | + (A positive growth response was recorded for an OD600 exceeding 0.2 AU) | Growth on substrate (in words) (C. ragsdalei [9]): inability |
| O=C(O)C1=C[C@@H](O)[C@@H](O)[C@H](O)C1 [Shikimic acid] | – | – | – | + (A positive growth response was recorded for an OD600 exceeding 0.2 AU) | + (A positive growth response was recorded for an OD600 exceeding 0.2 AU) | + (A positive growth response was recorded for an OD600 exceeding 0.2 AU) | + (A positive growth response was recorded for an OD600 exceeding 0.2 AU) | Chemoorganotrophic growth on substrate (in words) (C. coskatii PS02 [10]): growth was observed |
| O=C(O)CC(O)(CC(=O)O)C(=O)O [Na-Citrate] | – | – | – | – | – | – | + (A positive growth response was recorded for an OD600 exceeding 0.2 AU) | Growth on substrate (in words) (C. ljungdahlii PETC [7]): inability; Growth on substrate (in words) (C. autoethangenum [8]; C. autoethanogenum): inability; Growth on substrate (in words) (C. ragsdalei [9]): inability; Chemoorganotrophic growth on substrate (in words) (C. coskatii PS02 [10]): growth was observed |
